Reference: patent US20230263822A1, “MODULATION OF FACTOR 11 EXPRESSION” (Ionis Pharmaceuticals, Inc., priority 2008, published 2023)

How the values were obtained:
platelet aggregation = test: Platelet aggregation assay, ADP and/or collagen (Example 45); format: in vivo, cynomolgus monkeys; conditions: escalating dose regimen
In short: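 Monkeys received subcutaneous antisense oligonucleotides or PBS, either escalating from 5 to 25 mg/kg or chronically at 5 then 10 mg/kg, over 12 weeks. Plasma was collected weekly and challenged with 1 mmol/L ADP and/or 3 μg collagen for 10 minutes. Aggregation was read by impedance change and initial slope after shape change, averaged over duplicate runs.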

Factor 11 activity = test: Factor 11 protein activity, F11 assay based on clotting time (Example 45); format: in vivo, cynomolgus monkeys; conditions: escalating dose regimen
In short: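 Monkeys dosed subcutaneously with antisense oligonucleotides in escalating regimens from 5 to 25 mg/kg up to week 12 (one chronic group capped at 10 mg/kg); PBS controls. Weekly plasma Factor 11 measured by clotting time in Factor 11-deficient plasma with aPTT reagent, 37 °C, CaCl2-triggered; expressed as percent inhibition versus PBS.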

[1] = Tolerability in CD1 mice: liver function, ALT, AST, bilirubin, albumin (Example 33); conditions: plasma, 50 mg/kg s.c. twice a week
Method: (§1) A control group of five mice was injected subcutaneously with PBS for 2 weeks. All experimental groups (i.e. ASO treated mice at 2, 4, 6 weeks) were compared to the control group (i.e. PBS, 2 weeks).
To evaluate the effect of ISIS oligonucleotides on hepatic function, plasma concentrations of transaminases were measured using an automated clinical chemistry analyzer (Hitachi Olympus AU400e, Melville, N.Y.). […] Plasma levels of bilirubin and albumin were also measured using the same clinical chemistry analyzer and expressed in mg/dL.

[2] = Body and organ weights of cynomolgus monkeys (Example 45); format: in vivo; conditions: for body weights: escalating dose regimen;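 on Organ weights, Kidney: absolute organ weight in grams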;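 on Organ weights, Liver: absolute organ weight in grams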;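 on Organ weights, Spleen: absolute organ weight in grams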
In short: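 Cynomolgus monkeys (2 male, 3 female per group) given antisense oligonucleotides s.c. in escalating doses: 5, then 10, then 25 mg/kg, three times weekly then twice weekly, over 12 weeks; PBS control; chronic arm 5 then 10 mg/kg to week 12. Body weight weekly; liver, kidney and spleen weighed after euthanasia on day 85.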

fibrinogen = test: Fibrinogen assay (Example 45); format: in vivo, cynomolgus monkeys; conditions: plasma, escalating dose regimen
In short: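 Monkeys received subcutaneous antisense oligonucleotide or PBS in escalating doses of 5, 10 and 25 mg/kg two to three times weekly over 12 weeks; one ISIS 416850 group was held at 5–10 mg/kg. Citrated plasma sampled before and weekly during dosing was analysed for fibrinogen on an ACL 9000 coagulometer.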

[3] = mouse, in vivo
Method: as §1
Blood obtained from all mice groups were sent to Antech Diagnostics for hematocrit (HCT), mean corpuscular volume (MCV), mean corpuscular hemoglobin (MCH), and mean corpuscular hemoglobin concentration (MCHC) measurements and analyses, as well as measurements of the various blood cells, such as WBC (neutrophils, lymphocytes, and monocytes), RBC, and platelets, and total hemoglobin content.

[4] = after the animals were euthanized

Substance: ISIS 416838: MOE gapmer, nucleobases 1018 to 1042 of SEQ ID NO: 1 (Table 6) (antisense GCAACCGGGATGATGAGTGC; MOE gapmer, wing and gap sizes not given here)
- platelet aggregation (platelet aggregation; day 15 (with ADP)): 15 Ohms
- platelet aggregation (platelet aggregation; day 36 (with ADP)): 8 Ohms
- platelet aggregation (platelet aggregation; day 43 (with collagen)): 16 Ohms
- platelet aggregation (platelet aggregation; day 57 (with ADP)): 7 Ohms
- platelet aggregation (platelet aggregation; day 64 (with collagen)): 13 Ohms
- platelet aggregation (platelet aggregation; day 78 (with ADP)): 11 Ohms
- platelet aggregation (platelet aggregation; day 85 (with ADP)): 15 Ohms
- platelet aggregation (platelet aggregation; day 85 (with collagen)): 24 Ohms
- platelet aggregation (platelet aggregation; day −5 (with collagen)): 15 Ohms
- percent inhibition of Factor 11 activity, relative to PBS control (Factor 11 activity; day 8): 3%
- percent inhibition of Factor 11 activity, relative to PBS control (Factor 11 activity; day 15): 4%
- percent inhibition of Factor 11 activity, relative to PBS control (Factor 11 activity; day 22): 5%
- percent inhibition of Factor 11 activity, relative to PBS control (Factor 11 activity; day 29): 8%
- percent inhibition of Factor 11 activity, relative to PBS control (Factor 11 activity; day 36): 11%
- percent inhibition of Factor 11 activity, relative to PBS control (Factor 11 activity; day 43): 5%
- percent inhibition of Factor 11 activity, relative to PBS control (Factor 11 activity; day 50): 8%
- percent inhibition of Factor 11 activity, relative to PBS control (Factor 11 activity; day 57): 10%
- percent inhibition of Factor 11 activity, relative to PBS control (Factor 11 activity; day 64): 11%
- percent inhibition of Factor 11 activity, relative to PBS control (Factor 11 activity; day 71): 12%
- percent inhibition of Factor 11 activity, relative to PBS control (Factor 11 activity; day 78): 10%
- percent inhibition of Factor 11 activity, relative to PBS control (Factor 11 activity; day 85): 10%
- percent inhibition of Factor 11 activity, relative to PBS control (Factor 11 activity; day −5): 0%
- percent inhibition of Factor 11 activity, relative to PBS control (Factor 11 activity; day −14): 0%
- ALT ([1]; 2 weeks): 61 IU/L
- AST ([1]; 2 weeks): 106 IU/L
- Albumin ([1]; 2 weeks): 3.5
- Bilirubin ([1]; 2 weeks): 0.57 mg/dL
- ALT ([1]; 4 weeks): 41 IU/L
- AST ([1]; 4 weeks): 73 IU/L
- Albumin ([1]; 4 weeks): 3.8
- Bilirubin ([1]; 4 weeks): 0.24 mg/dL
- ALT ([1]; 6 weeks): 141 IU/L
- AST ([1]; 6 weeks): 107 IU/L
- Albumin ([1]; 6 weeks): 3.6
- Bilirubin ([1]; 6 weeks): 0.20 mg/dL
- Organ weights, Kidney [2, 4]: 12 g
- Organ weights, Liver [2, 4]: 63 g
- Organ weights, Spleen [2, 4]: 5 g
- body weights ([2]; day 1): 2720 g
- body weights ([2]; day 8): 2592 g
- body weights ([2]; day 15): 2642 g
- body weights ([2]; day 22): 2702 g
- body weights ([2]; day 29): 2689 g
- body weights ([2]; day 36): 2708 g
- body weights ([2]; day 43): 2700 g
- body weights ([2]; day 50): 2731 g
- body weights ([2]; day 57): 2737 g
- body weights ([2]; day 64): 2746 g
- body weights ([2]; day 71): 2869 g
- body weights ([2]; day 78): 2766 g
- fibrinogen levels (fibrinogen; day 8): 209 mg/dL
- fibrinogen levels (fibrinogen; day 15): 198 mg/dL
- fibrinogen levels (fibrinogen; day 22): 183 mg/dL
- fibrinogen levels (fibrinogen; day 29): 184 mg/dL
- fibrinogen levels (fibrinogen; day 36): 182 mg/dL
- fibrinogen levels (fibrinogen; day 43): 186 mg/dL
- fibrinogen levels (fibrinogen; day 50): 216 mg/dL
- fibrinogen levels (fibrinogen; day 57): 190 mg/dL
- fibrinogen levels (fibrinogen; day 64): 190 mg/dL
- fibrinogen levels (fibrinogen; day 71): 199 mg/dL
- fibrinogen levels (fibrinogen; day 78): 189 mg/dL
- fibrinogen levels (fibrinogen; day 85): 196 mg/dL
- fibrinogen levels (fibrinogen; day −5): 205 mg/dL
- fibrinogen levels (fibrinogen; day −14): 251 mg/dL
- RBC count [3]: 8 cells/pL
